Measured values published in patent US20220257569A1, “INDOLE-OXADIAZOLE COMPOUNDS AND THEIR THERAPEUTIC USE” (THE GOVERNING COUNCIL OF THE UNIVERSITY OF TORONTO, priority 2018, published 2022).

Tests used:
cannabinoid CB1 receptor [1] = molecular target: T1, cannabinoid CB1 receptor (Homo sapiens, UniProt P21554); test: PathHunter β-Arrestin assay (allosteric inhibition of agonist Emax); type: cell-based; conditions: FIG. 1; reduction in Emax not overcome by higher concentrations of agonist
T1 construct: host or cells: HEK293 CB1 β-arrestin cells
T1 sequence (P21554 whole entry): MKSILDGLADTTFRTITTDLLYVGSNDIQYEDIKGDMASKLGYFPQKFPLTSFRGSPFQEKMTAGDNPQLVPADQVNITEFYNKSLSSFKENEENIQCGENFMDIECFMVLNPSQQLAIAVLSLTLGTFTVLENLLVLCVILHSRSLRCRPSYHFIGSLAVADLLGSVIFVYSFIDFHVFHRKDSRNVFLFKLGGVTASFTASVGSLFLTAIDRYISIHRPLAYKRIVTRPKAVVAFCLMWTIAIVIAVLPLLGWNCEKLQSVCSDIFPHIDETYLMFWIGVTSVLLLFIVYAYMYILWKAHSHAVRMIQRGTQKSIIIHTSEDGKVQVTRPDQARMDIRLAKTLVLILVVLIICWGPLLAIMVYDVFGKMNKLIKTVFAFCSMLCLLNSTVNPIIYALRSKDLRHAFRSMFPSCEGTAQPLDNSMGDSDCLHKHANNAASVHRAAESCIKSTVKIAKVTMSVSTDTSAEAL
Description: PathHunter™ enzyme fragment complementation is the most important method to measure β-arrestin recruitment. PathHunter™ β-Arrestin assays developed by DiscoveRX are revolutionary high-throughput screening assays for monitoring GPCR activation following ligand stimulation, without an imaging instrument, fluorescent protein tag, or radioactivity.
Instead, the assays detect GPCR activation through binding of β-arrestin to the expressed GPCR of interest, and measure the interaction of the two proteins using enzyme fragment complementation (EFC). The EFC approach offers a range of benefits for screening, including signal amplification and robust performance.
The larger portion of β-gal, termed EA for enzyme acceptor, is fused to the C-terminus of β-arrestin. The smaller, complementing fragment of β-gal, the ProLink™ tag, is expressed as a fusion protein with the GPCR of interest at the C-terminus. Upon activation, the GPCR is bound by β-arrestin. The interaction of β-arrestin and the GPCR forces the interaction of ProLink and EA, thus allowing complementation of the two fragments of β-gal and the formation of a functional enzyme capable of hydrolyzing substrate and generating a […] signal.
Using the PathHunter™ CB1 kit from DiscoveRX, a cannabinoid CB1 receptor agonist is added and activates the receptor, EA, which is fused to the C-terminus of β-arrestin, and then interacts with the ProLink™ tag which is fused to the CB1 receptor. This will result in the […] signal that is recorded by a luminescence plate reader. The […] signal is directly related to the activation of the receptor, therefore a higher concentration of agonist will yield a larger […] signal. The cannabinoid agonist is added in increasing concentrations to obtain an agonist dose response curve. With pre-incubation of a potential allosteric modulator, either an enhancement of agonist activity with an allosteric enhancer or a decrease in the maximal response of the agonist with an allosteric inhibitor is expected.
All raw data are obtained as luminescence (relative light units), and are normalised and presented as a percentage of the maximal response for the cannabinoid CB1 receptor agonist CP55,940 (2-[(1R,2R,5R)-5-hydroxy-2-(3-hydroxypropyl)cyclohexyl]-5-(2-methyloctan-2-yl)phenol).
The PathHunter™ β-Arrestin assay (from DiscoveRX, Fremont, USA) was performed as follows. HEK293 CB1 β-arrestin cells were plated 48 hours before use and incubated at 37° C., 5% CO2 in a humidified incubator. Test compounds were dissolved in dimethylsulfoxide (DMSO) and diluted in optimized cell culture (OCC, as supplied by DiscoveRX) media to the required concentrations. 5 μL of test compound or vehicle solution was added to each well and incubated for 60 minutes at 37° C., 5% CO2 in a humidified incubator. 5 μL of increasing concentrations of anandamide was added to each well followed by a 90-minute incubation at 37° C., 5% CO2 in a humidified incubator. 55 μL of detection reagent (as supplied by DiscoveRX) was then added, followed by a further 90 minute incubation at room temperature in the dark. Chemiluminescence, reported in relative light units (RLU—a dimensionless value, standardised as a % of maximum stimulation with anandamide), was measured on a standard luminescence plate reader.
Data were plotted as % of maximal stimulation (Emax) caused by agonist versus the logarithm of concentration of agonist, in the presence or absence of a fixed concentration of test compound (modulator) or vehicle. For example, stimulation in the presence of agonist alone will give a value for stimulation expressed in RLU, which can be expressed as a range from 0% (at lowest agonist concentration, e.g., 1 nM) to 100% (at the highest agonist concentration, e.g., 10 μM). […]

DATKO mice = test: Open field test in DATKO mice and WT littermates; type: in vivo; conditions: 10 mg/kg; for Locomotor Activity (total distance traveled) / Stereotypy (total stereotypic movements) / Vertical Activity (total): mean±SEM
Description: DAT1/SLC6A3 gene polymorphism associations have been identified in various psychiatric disorders, including ADHD, BD and SCZ. Also, in line with reduced functioning of the dopamine transporter (DAT) in BD patients, mice without functioning DAT display behavioural abnormalities that model mania observed in BD and that mimic positive symptoms in SCZ. These mice are accepted as a model for assessing the effects of novel small molecules that may have utility in modulating the dopamine dysfunction; deficits respond to both lithium and antipsychotics (Beaulieu et al., 2004; Gainetdinov et al., 1999; Ralph et al., 2001).
Adult (>P70) GluN1-knockdown (GluN1KD—F1: C571Bl/6J x 129S1/SvlmJ) and DAT-knockout (DATKO—C57Bl/6J), balanced for sex, were treated with either vehicle (1:1:18-Tween80:95% ethanol:saline) or a novel CB1 negative allosteric modulator (CB1 NAM), ABM300, at 10 mg/kg, was tested in behavioural assays, and compared to littermate controls. Locomotor, stereotypic movements and vertical activity were tested, along with anxiety/mania and sensorimotor gating behaviours. All data were analyzed with two- or three-way ANOVA, as appropriate, and corrected for multiple comparisons.
Classically, locomotor output has been used as a gold standard for the measure of dopamine system dysfunction. The role of dopamine in movement control is well defined and, in its simplest forms, testing for hyperactivity is based on the premise that enhanced dopaminergic activity in rodents leads to enhanced motor activity (van den Buuse et al., 2010). Locomotor, stereotypic and vertical activity was recorded using digital activity monitors, quantifying horizontal and vertical activity, along with repetitive behaviour, via infrared beam breaks. GluN1 KD and DATKO display basal hyperactivity, with increases in stereotypic behaviours which can be ameliorated with antipsychotics (Peleg-Raibstein et al., 2008).

cannabinoid CB1 receptor [2] = molecular target: T1, cannabinoid CB1 receptor; test: PathHunter β-Arrestin assay (allosteric inhibition of agonist Emax); type: cell-based; conditions: FIG. 1; agonist CP55,940; calculated by GraphPad Prism; read-out: IC50 for reduction of Emax of CP55,940

IC50 (cannabinoid CB1 receptor [2]): 1 nM
Compound: CCc1c(-c2nnc(Nc3ccccc3)o2)[nH]c2ccc(Cl)cc12 [ABM300, 5-(5-Chloro-3-ethyl-1H-indol-2-yl)-N-phenyl-1,3,4-oxadiazol-2-amine]
type of modulation (cannabinoid CB1 receptor [1]): allosteric inhibitor (negative allosteric modulator)
effect on hyperactivity (in words) (DATKO mice; DATKO mice): reduces hyperactivity
effect on abnormal stereotypic behaviours (in words) (DATKO mice; DATKO mice, open field): reduces abnormal stereotypic behaviours
effect on abnormal vertical exploration (risk-taking behaviour) (in words) (DATKO mice; DATKO mice, open field): reduces abnormal vertical exploration
Locomotor Activity (total distance traveled) (DATKO mice; DATKO mice, open field): 13120 ± 1961 cm
Stereotypy (total stereotypic movements) (DATKO mice; DATKO mice, open field): 900 ± 96
Vertical Activity (total) (DATKO mice; DATKO mice, open field): 530 ± 101
Locomotor Activity (total distance traveled) (DATKO mice; WT (C57Bl/6J) mice, open field): 1851 ± 378 cm
Stereotypy (total stereotypic movements) (DATKO mice; WT (C57Bl/6J) mice, open field): 533 ± 69
Vertical Activity (total) (DATKO mice; WT (C57Bl/6J) mice, open field): 262 ± 69
